One experiment deals with T1, recombinant human GST-Syk (Homo sapiens, UniProt P43405).
T1 construct: purchased Carna Biosciences 08-176
As to the kind of experiment: Homogeneous Time-Resolved Fluorescence (HTRF) assay for the recombinant human Syk enzyme. Type of experiment: biochemical. The settings on record: ATP 25 μM, 10-dose titration, read-out: rhSYK Activity. As for the experimental part: Syk inhibition may be determined using the following assay protocol:
Homogeneous Time-Resolved Fluorescence (HTRF) Assay for the Recombinant Human Syk Enzyme:
A recombinant GST-hSyk fusion protein was used to measure potency of compounds to inhibit human Syk activity. The recombinant human GST-Syk (Carna Biosciences #08-176) ([…]) was incubated with various concentrations of the inhibitor diluted in DMSO (0.1% final concentration) for 10 minutes at room temperature in 15 mM Tris-HCl (pH 7.5), 0.01% tween 20, 2 mM DTT in 384 well plate format. To initiate the reaction the biotinylated substrate peptide (250 nM final concentration) that contains the phosphorylation site for Syk was added with magnesium (5 mM final concentration) and ATP (25 μM final concentration). Final volume of the reaction was 10 μL. Phosphorylation of the peptide was allowed to proceed for 45 minutes at room temperature. To quench the reaction and detect the phosphorylated product, 2 nM of a Europium-anti-phosphotyrosine antibody (Perkin Elmer #AD0161) and 70 nM SA-APC (Perkin-Elmer #CR130-100) were added together in 15 mM Tris pH 7.5, 40 mM EDTA, 0.01% tween 20. Final volume of the quenching solution was 10 μL. The resulting HTRF signal was measured after 30 minutes on an EnVision (Perkin-Elmer) reader using a time-resolved fluorescence protocol. IC50 was determined following 10-dose titration (10 μM to 0.508 nM) and four parameter logistic curve fitting using the Merck Assay Data Analyzer. The rhSyk activity (IC50) is expressed as +++ (100 nM or less), ++ (between 100 and 1000 nM), + (between 1 and 10 μM).
(In general: In TR-FRET formats the signal depends on donor and acceptor labels being close together.)
Take `Cc1cc(Nc2cc(C(F)(F)F)ccn2)nc(-n2cnc([C@]3(O)CC[C@H](OC(=O)c4ccccc4)CC3)c2)c1` [Example 63, trans-4-hydroxy-4-[1-(4-methyl-6-{[4-(trifluoromethyl)pyridin-2-yl]amino}pyridin-2-yl)-1H-imidazol-4-yl]cyclohexyl benzoate]: the IC50 is no more than 100 nM.

With `Cc1cc(Nc2cc(C(F)(F)F)ccn2)nc(-n2cnc([C@]3(O)CC[C@@H](CC(=O)O)CC3)c2)c1` [Example 14, {cis-4-hydroxy-4-[1-(4-methyl-6-{[4-(trifluoromethyl)pyridin-2-yl]amino}pyridin-2-yl)-1H-imidazol-4-yl]cyclohexyl}acetic acid], the IC50 was no more than 100 nM.

Consider `CCOC(=O)[C@H]1CC[C@](O)(c2cn(-c3cc(C)cc(Nc4cc(C(F)(F)F)ccn4)n3)cn2)CC1` [Example 29, Ethyl cis-4-hydroxy-4-[1-(4-methyl-6-{[4-(trifluoromethyl)pyridin-2-yl]amino}pyridin-2-yl)-1H-imidazol-4-yl]cyclohexane-carboxylate], for which the IC50 is no more than 100 nM.

On to `Cc1cc(Nc2cc(C(F)(F)F)ccn2)nc(-n2cnc([C@]3(O)CC[C@H](CC(=O)O)CC3)c2)c1` [Example 13, {trans-4-hydroxy-4-[1-(4-methyl-6-{[4-(trifluoromethyl)pyridin-2-yl]amino}pyridin-2-yl)-1H-imidazol-4-yl]cyclohexyl}acetic acid], for which the IC50 was no more than 100 nM.

Consider `COC(=O)c1cn(-c2cccc(Nc3cc(Cl)ccn3)n2)cn1` [Example 69, Methyl 1-{6-[(4-chloropyridin-2-yl)amino]pyridin-2-yl}-1H-imidazole-4-carboxylate], for which the IC50 was 100 to 1000 nM.

As to `COc1ccnc(Nc2cc(C)cc(-n3cnc(C4(O)CCC(OC(=O)c5ccccc5)CC4)c3)c2)n1` (stereo not drawn) [Example 41, cis-4-hydroxy-4-(1-{3-[(4-methoxypyrimidin-2-yl)amino]-5-methylphenyl}-1H-imidazol-4-yl)cyclohexyl benzoate], the IC50 is no more than 100 nM.

As to `Cc1cc(Nc2cc(C(F)(F)F)ccn2)nc(-n2cnc([C@]3(O)CC[C@@H](O)CC3)c2)c1` [Example 62, cis-1-[1-(4-methyl-6-{[4-(trifluoromethyl)pyridin-2-yl]amino}pyridin-2-yl)-1H-imidazol-4-yl]cyclohexane-1,4-diol], the IC50 is no more than 100 nM.

With `COC(=O)C[C@H]1CC[C@@](O)(c2cn(-c3cc(C)cc(Nc4nccc(C(F)(F)F)n4)c3)cn2)CC1` [Example 17, Methyl {trans-4-hydroxy-4-[1-(3-methyl-5-{[4-(trifluoromethyl)pyrimidin-2-yl]amino}phenyl)-1H-imidazol-4-yl]-cyclohexyl}acetate], the IC50 is no more than 100 nM.

In the case of `CCOC(=O)[C@H]1CC[C@@](O)(c2cn(-c3cc(C)cc(Nc4cc(C(F)(F)F)ccn4)n3)cn2)CC1` [Example 28, Ethyl trans-4-hydroxy-4-[1-(4-methyl-6-{[4-(trifluoromethyl)pyridin-2-yl]amino}pyridin-2-yl)-1H-imidazol-4-yl]cyclohexane-carboxylate], the IC50 was no more than 100 nM.

`COC(=O)c1cn(-c2cccc(Nc3cc(C)ccn3)n2)cn1` [Example 102, Methyl 1-{6-[(4-methylpyridin-2-yl)amino]pyridin-2-yl}-1H-imidazole-4-carboxylate]: the IC50 fell in the range of 100 to 1000 nM.

In the case of `Cc1cc(Nc2nccc(C(F)(F)F)n2)cc(-n2cnc(CCC(=O)O)c2)c1` [Example 76, 3-[1-(3-methyl-5-{[4-(trifluoromethyl)pyrimidin-2-yl]amino}-phenyl)-1H-imidazol-4-yl]propanoic acid], the IC50 was no more than 100 nM.

As for `CC(C)(O)c1cn(-c2cccc(Nc3nccc(C(F)(F)F)n3)c2)cn1` [Example 104, 2-[1-(3-{[4-(trifluoromethyl)pyrimidin-2-yl]amino}-phenyl)-1H-imidazol-4-yl]propan-2-ol], the IC50 lay within 100 to 1000 nM.

The same experiment, now with this note: ATP 25 μM, 10-dose titration, read-out: rhSYK IC50.
For `Cc1cc(Nc2cc(C(F)(F)F)ccn2)nc(-n2cnc([C@]3(O)CC[C@@H](CC(=O)O)CC3)c2)c1` [Example 14, {cis-4-hydroxy-4-[1-(4-methyl-6-{[4-(trifluoromethyl)pyridin-2-yl]amino}pyridin-2-yl)-1H-imidazol-4-yl]cyclohexyl}acetic acid], the IC50 was found to be 0.861 nM.

On to `Cc1cc(Nc2cc(C(F)(F)F)ccn2)nc(-n2cnc([C@]3(O)CC[C@@H](O)CC3)c2)c1` [Example 62, cis-1-[1-(4-methyl-6-{[4-(trifluoromethyl)pyridin-2-yl]amino}pyridin-2-yl)-1H-imidazol-4-yl]cyclohexane-1,4-diol], for which the IC50 was 1.36 nM.

Source of the values: US9487504B2, “Imidazolyl analogs as syk inhibitors” (Merck Sharp & Dohme Corp., priority 2012, dated 2016).
